Laboratory results published in patent US5443986A, “Enzymatic analysis using substrates that yield fluorescent precipitates” (Molecular Probes, Inc., priority 1993, dated 1995).

How the values were obtained:
[1] = Critical concentration (Mc) for precipitation of the enzymatic product; assay type: physicochemical; conditions: product of hydrolysis by excess alkaline phosphatase, 0.1M TRIS pH 10.3
Method: 2D) Critical concentration: Various concentrations of 2-(4'-methoxy-2'-phosphoryloxyphenyl)quinazolinone (3e) were reacted with 50 μL of excess alkaline phosphatase in 200 μL solution of 0.1M TRIS≥pH 10.3 containing 50 mM NaCl, 10 mM MgCl2 and 0.1 mM ZnCl2. The resulting precipitate and fluorescence were measured in a CytoFluor fluorescence plate reader (Millipore) with excitation at 360 nm, emission at 460 nm using sensitivity setting 3.
3). Determination of the critical concentration and pH dependence for the precipitation. The critical concentration (Mc, in units of mmoles) and the pH dependence (pKa) for precipitation are both important parameters for judging the precipitation properties of the enzymatic products obtained from the subject substrates. Below the critical concentration the product will not be detected as a fluorescent precipitate. Obviously these two parameters contribute to the precipitation in a correlated way. As a simple approach, one may define the critical concentration as the concentration necessary for the precipitation at a high pH where all of the phenol group is ionized. Similarly, acidification by lowering the pH results in precipitation at a concentration below the critical concentration that is obtained at high pH to an extent that is related to the pKa of the phenolic group. It is a characteristic of the preferred substrates that only the product precipitate is fluorescent. In this case the precipitate is quantitated by its fluorescence which results in a correlation of the fluorescence with the degree of precipitation.
To obtain the critical concentration for one product the phosphatase substrate (1e) (200 μL) in a 96-well plate is added to 0.1M TRIS, pH 10.3, containing 50 mM NaCl, 10 mM MgCl2 and 0.1 mM ZnCl2 to yield a final concentration of 0.1 to 10 mM. 50 μL of a 1 mg/mL solution of alkaline phosphatase is then added. The fluorescence development is complete after 5 minutes as measured in using a CytoFluor™ 2300 fluorescence plate reader (Millipore, Bedford, Mass.). A concentration showing appreciable fluorescence is determined as the critical concentration.

[2] = molecular target: T1, alkaline phosphatase (Bos taurus, UniProt P19111); assay type: biochemical; design: mature GPI-type homodimer; conditions: 0.1M TRIS pH 10.3, 50 mM NaCl, 10 mM MgCl2, 0.1 mM ZnCl2; double-reciprocal plot
T1 sequence (P19111 20-506): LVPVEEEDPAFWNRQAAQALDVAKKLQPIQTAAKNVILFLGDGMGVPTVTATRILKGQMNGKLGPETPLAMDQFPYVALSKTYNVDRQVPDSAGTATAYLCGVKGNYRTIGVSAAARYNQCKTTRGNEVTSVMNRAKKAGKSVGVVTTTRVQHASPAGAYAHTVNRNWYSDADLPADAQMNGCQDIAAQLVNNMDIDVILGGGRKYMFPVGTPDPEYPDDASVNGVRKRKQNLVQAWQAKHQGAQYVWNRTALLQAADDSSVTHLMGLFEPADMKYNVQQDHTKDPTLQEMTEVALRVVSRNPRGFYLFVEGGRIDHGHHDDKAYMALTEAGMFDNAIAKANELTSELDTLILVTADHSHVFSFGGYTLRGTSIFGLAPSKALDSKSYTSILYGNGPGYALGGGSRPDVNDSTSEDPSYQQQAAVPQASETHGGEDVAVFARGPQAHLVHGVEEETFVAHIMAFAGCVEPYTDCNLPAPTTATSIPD
Method: As compared with other synthetic substrates, the fluorogenic precipitating substrates described in this invention normally have high enzymatic turnover rates and moderate affinities for the enzymes. Turnover rates of the substrates can be determined as in Example 10 and expressed as micromoles of product per minute per milligram protein (k2, in units of μmol·min^-1 ·mg^-1). The affinity of the substrate is determined by its dissociation constant, KM, in millimolar units. The enzymes can bind to and catalyze conversion of the soluble substrates into detectable reaction products that are apparently less soluble and will precipitate in aqueous solutions. The preferred detectable reaction products are fluorescent precipitates. The precipitation, however, and thus fluorescence, depends on the reaction product concentration or the initial substrate concentration used, as well as the ionization state of the product's phenol group. There are two parameters determining the precipitation, i.e. critical concentration (Mc) and pH dependence (pKa). A method for determination of these parameters is given in Example 11. Table 10 gives the relevant parameters for the enzymatic reaction and precipitation of quinazolinone-based alkaline phosphatase substrates.
4). Kinetic assay of some of the substrates. The specific activity (k2, in a unit of micromole per minute per milligram protein) and Michaelis constant (KM, in a unit of millimole) for hydrolysis of the substrates by the enzyme are listed in Table 10. All of the specific enzymatic reactions are made in the following buffers:
For alkaline phosphatase: 0.1M TRIS pH 10.3 containing 50 mM NaCl, 10 mM MgCl2 and 0.1 mM ZnCl2.
Because the kinetic assay involves variable amounts of precipitate with variable light scattering, measurement in the fluorometer as described above cannot be used here. Instead, a fluorescence plate reader with front-face measurement geometry such as the CytoFluor™ 2300 (Millipore, Bedford, Mass.) is preferred for quantitating the precipitate. The following protocol illustrates the kinetic assay.
4.1 ). In a 96-well plate, pipette 200 μL of a phosphatase substrate in the alkaline phosphatase reaction buffer with a final concentration of 2 to 6 mM, then add 50 μL 1 mg/mL alkaline phosphatase. […] Fluorescence of the precipitate is measured in the CytoFluor with appropriate sensitivity and excitation and emission settings as have been determined with the fluorometer. The fluorescence signal versus the amount of the precipitate is then established for each substrate.
4.2). […] Read the fluorescence of the resulting precipitate after 10 minutes reaction time and calculate the precipitate formation rate per minute by use of the determined fluorescence signal versus the amount of the precipitate. […]

[3] = molecular target: Alkaline phosphatase conjugated goat anti-rabbit antibodies (Bos taurus, UniProt P19111); assay: Western blot immunodetection of subunit II of bovine heart cytochrome c oxidase with a phosphatase substrate; assay type: biochemical
Alkaline phosphatase conjugated goat anti-rabbit antibodies, sequence (P19111 20-506 limits assumed): as the sequence (P19111 20-506) above
Method: 1.1. Cytochrome c oxidase from the bovine heart mitochondrial inner membrane is highly purified according to the method of Capaldi and Hayashi, FEBS LETT 26, 4229-4238 (1972).
1.2. 50 μl of pure cytochrome c oxidase (20 mg/ml) is dissolved in a dissociation buffer to a final concentration of 1 mg/ml for electrophoresis.
1.3. An 18% acrylamide gel containing 6M urea, 0.1% SDS is used for gel electrophoresis according to a procedure published by Zhang, Lindorfer and Capaldi, BIOCHEMISTRY, 27, 1389-1394 (1988). 15 μg of protein is loaded onto each lane. The subunits of cytochrome c oxidase are separated during electrophoresis (there are 13 different subunits in bovine cytochrome c oxidase).
2.3. Protein samples in both B and C, resolved in SDS-gel electrophoresis, are semi-dry transferred onto a nitrocellulose membrane following a standard electrophoretic elution procedure published by Harlow and Lane, ANTIBODIES, A LABORATORY MANUAL, Cold Spring Harbor Lab (1988).
3.1. The nitrocellulose membrane is incubated with a polyclonal antibody that is specific for Subunit II of Cytochrome C oxidase (final antibody concentration: 20 μg/ml) at room temperature for 12 hours with agitation.
3.2. The membrane is incubated with the enzyme-labeled secondary antibody at room temperature for 1 hour with agitation. Alkaline phosphatase conjugated goat anti-rabbit antibodies are used with 1:3000 dilution in TTBS buffer containing 1% nonfat milk.
3.4. Membrane B is incubated in the phosphatase substrate BCIP/NBT (BioRad), while C is incubated with the fluorogenic, phosphatase substrate 1e.

[4] = molecular target: T1, alkaline phosphatase; assay: Fluorescence and light scattering on hydrolysis of the substrate (FIG. 2B, 2C); assay type: biochemical; design: mature GPI-type homodimer; conditions: 10 μg/mL alkaline phosphatase, 20 seconds
Method: 2B) Coexistence of fluorescence and precipitation: 5 mM 2-(4'-methoxy-2'-phosphoryloxyphenyl)quinazolinone (3e), in 0.1M TRIS pH 10.3 containing 50 mM NaCl, 10 mM MgCl2 and 0.1 mM ZnCl2, yields 210 units of fluorescence by action of 10 μg/mL alkaline phosphatase in 20 seconds. The fluorescence can be eliminated by addition of 0.6% Triton X-100 as a result of precipitate dissolution.
2C) Light-scattering increase as a result of precipitation: 2 mM 2-(4'-methoxy-2'-phosphoryloxyphenyl)quinazolinone (3e) scattering increases from 450 units to beyond the detection limit of 1000 units in 20 seconds by action of 10 μg/mL alkaline phosphatase, showing rapid formation of a precipitate. The enzymatic reaction was in 0.1M TRIS pH 10.3 containing 50 mM NaCl, 10 mM MgCl2 and 0.1 mM ZnCl2. The scattering measurement was made in a Perkin-Elmer LS-50 fluorometer with 5 nm slits and a coincident excitation and emission wavelength of 420 nm.

[5] = molecular target: β-glucuronidase from E. coli (Escherichia coli, UniProt P05804); assay: Detection of enzymatic activity in chromatographic fractions, glucuronidase peak; assay type: biochemical; conditions: 5 μL of 5 mg/mL substrate added to 25 μL fraction, pH 7.0
β-glucuronidase from E. coli, sequence (P05804 whole entry): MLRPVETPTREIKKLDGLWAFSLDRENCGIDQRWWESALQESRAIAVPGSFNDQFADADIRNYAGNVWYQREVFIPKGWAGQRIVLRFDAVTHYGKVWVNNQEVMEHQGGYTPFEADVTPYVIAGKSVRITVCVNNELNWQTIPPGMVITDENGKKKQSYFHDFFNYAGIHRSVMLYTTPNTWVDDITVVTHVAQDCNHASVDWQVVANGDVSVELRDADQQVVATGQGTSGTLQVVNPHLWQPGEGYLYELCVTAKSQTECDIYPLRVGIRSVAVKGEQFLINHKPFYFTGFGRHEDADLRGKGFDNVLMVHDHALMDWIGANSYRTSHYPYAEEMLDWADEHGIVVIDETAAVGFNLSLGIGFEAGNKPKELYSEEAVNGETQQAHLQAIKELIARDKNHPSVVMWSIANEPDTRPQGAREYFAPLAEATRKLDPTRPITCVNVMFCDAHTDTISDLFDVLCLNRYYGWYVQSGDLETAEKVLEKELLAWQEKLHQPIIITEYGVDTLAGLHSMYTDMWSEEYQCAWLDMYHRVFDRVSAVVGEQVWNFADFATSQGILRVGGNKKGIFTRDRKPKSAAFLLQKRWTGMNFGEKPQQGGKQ
Method: (§1) β-galactosidase from E. coli (MW 540,000, approximately 1 mg) and β-glucuronidase from E. coli (MW 280,000, approximately 1 mg) are dissolved in 25 μL of 0.1M phosphate, pH 7,0 containing 0.11M 2-mercaptoethanol and 1 mM MgCl2 and chromatographed on a 1×35 cm column of BioGel A 1.5M equilibrated with the same buffer. Detection of the protein absorption at 280 nm is used to detect isolated protein fractions. […] To 25 μL aliquots of each fraction, is separately added 5 μL of a 5 mg/mL aqueous solution of 2-(5'-methoxy-2'-galactopyranosyl)phenyl-4-(3H)-quinazolone (3h) or 2-(2-O-β-D-glucopyranosiduronic acid)-4-(3H)-quinazolone (4h).

[6] = molecular target: β-galactosidase from E. coli (Escherichia coli, UniProt P00722); assay: Detection of enzymatic activity in chromatographic fractions, galactosidase peak; assay type: biochemical; conditions: 5 μL of 5 mg/mL substrate added to 25 μL fraction, pH 7.0
β-galactosidase from E. coli, sequence (P00722 2-1024): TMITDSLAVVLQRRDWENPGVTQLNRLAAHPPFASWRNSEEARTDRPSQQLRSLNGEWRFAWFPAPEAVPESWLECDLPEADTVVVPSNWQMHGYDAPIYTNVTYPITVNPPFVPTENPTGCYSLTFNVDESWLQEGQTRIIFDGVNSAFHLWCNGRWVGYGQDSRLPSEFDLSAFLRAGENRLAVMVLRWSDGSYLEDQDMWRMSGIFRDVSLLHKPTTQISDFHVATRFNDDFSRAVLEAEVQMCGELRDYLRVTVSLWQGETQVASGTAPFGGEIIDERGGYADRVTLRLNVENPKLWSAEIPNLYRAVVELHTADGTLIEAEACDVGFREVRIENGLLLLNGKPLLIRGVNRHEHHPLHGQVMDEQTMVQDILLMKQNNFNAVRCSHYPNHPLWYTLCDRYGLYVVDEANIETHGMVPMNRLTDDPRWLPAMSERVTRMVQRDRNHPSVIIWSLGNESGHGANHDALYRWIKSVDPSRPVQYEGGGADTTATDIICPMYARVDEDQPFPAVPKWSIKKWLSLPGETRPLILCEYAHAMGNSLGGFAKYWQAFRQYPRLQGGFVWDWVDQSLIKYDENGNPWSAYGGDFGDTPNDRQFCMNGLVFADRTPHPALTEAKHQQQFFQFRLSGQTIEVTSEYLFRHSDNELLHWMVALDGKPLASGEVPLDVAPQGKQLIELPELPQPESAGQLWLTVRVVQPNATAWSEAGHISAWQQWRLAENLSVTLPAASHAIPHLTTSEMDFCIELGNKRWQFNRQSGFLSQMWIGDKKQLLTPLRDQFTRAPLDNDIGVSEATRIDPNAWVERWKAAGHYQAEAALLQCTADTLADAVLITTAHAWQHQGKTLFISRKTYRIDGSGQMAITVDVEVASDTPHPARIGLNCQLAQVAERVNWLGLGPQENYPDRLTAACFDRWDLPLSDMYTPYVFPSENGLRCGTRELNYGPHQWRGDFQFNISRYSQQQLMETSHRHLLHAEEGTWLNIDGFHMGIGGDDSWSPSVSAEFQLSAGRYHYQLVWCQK
Method: as §1

Structure (SMILES)	Mc (critical concentration for precipitation) [1] [mM]	k2 (specific activity, turnover rate) [2] [µmol/min/mg]	also measured
O=c1[nH]c(-c2ccccc2OP(=O)(O)O)nc2ccccc12 [1e, 2-phenyl]	1.5	188.81	persistence of the stain on the membrane ([3]; membrane kept in a dry Petri dish): still fluorescent after 3 days; incubation time after which the immunoreactive band is visualized ([3]; nitrocellulose membrane): 30 min; staining of other transferred bands ([3]; nitrocellulose membrane): No other transferred bands are stained
COc1cc(OC)c(OP(=O)(O)O)c(-c2nc3ccccc3c(=O)[nH]2)c1 [2-(3',5'-dimethoxyphenyl)]	0.3	215.60	–
COc1ccc(OP(=O)(O)O)c(-c2nc3ccccc3c(=O)[nH]2)c1 [2e, 2-(5'-methoxyphenyl)]	0.8	–	–
COc1ccc(-c2nc3ccccc3c(=O)[nH]2)c(OP(=O)(O)O)c1 [3e, 2-(4'-methoxy-2'-phosphoryloxyphenyl)quinazolinone]	2.5	–	light scattering after action of alkaline phosphatase ([4]; 2 mM substrate, starts at 450 units, detection limit 1000 units, 420 nm): > 1000 units; fluorescence yielded by action of alkaline phosphatase ([4]; 5 mM substrate, 0.1M TRIS pH 10.3): 210 units
COc1ccc(O[C@@H]2O[C@H](CO)[C@H](O)[C@H](O)[C@H]2O)c(-c2nc3ccccc3c(=O)[nH]2)c1 [3h, 2-(5'-methoxy-2'-galactopyranosyl)phenyl-4-(3H)-quinazolone]	–	–	fluorescent precipitate formation in fractions of the second peak (β-glucuronidase) [5]: No cross reactivity is observed; fluorescent precipitate formation in fractions of the first peak (β-galactosidase) [6]: Visible yellow fluorescent precipitate formation occurs
O=C(O)[C@H]1O[C@@H](Oc2ccccc2-c2nc3ccccc3c(=O)[nH]2)[C@H](O)[C@@H](O)[C@@H]1O [4h, 2-(2-O-β-D-glucopyranosiduronic acid)-4-(3H)-quinazolone]	–	–	fluorescent precipitate formation in fractions of the second peak (β-glucuronidase) [5]: visible formation of a green fluorescent precipitate occurs; fluorescent precipitate formation in fractions of the first peak (β-galactosidase) [6]: No cross reactivity is observed
COc1ccc(OP(=O)(O)O)c(-c2nc3ccc(Cl)cc3c(=O)[nH]2)c1 [5e, 2-(5'-methoxyphenyl)-6-chloro]	1.2	–	–
O=c1[nH]c(-c2ccccc2OP(=O)(O)O)nc2ccc([N+](=O)[O-])cc12 [6e, 2-phenyl-6-nitro]	1.2	150.66	–
O=c1[nH]c(-c2cc(Cl)ccc2OP(=O)(O)O)nc2ccccc12 [9e, 2-(5'-chlorophenyl)]	0.4	–	–
